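Briefly, cells in 96-well plates were exposed to five compound concentrations for 48 h, and endpoints were estimated by linear interpolation. GI50 is the concentration that inhibits growth by half.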 The source made the active and inactive calls. Rule as the data show it: active = GI50 up to about 1.1 µM and inactive = higher.

The values below come from ChEMBL document CHEMBL1201862, “PubChem BioAssay data set” (2004).

Test systems include A498; CCRF-CEM; HCT-116; HOP-62; HOP-92; Hs-578T; M14; M19-MEL; MDA-MB-231; MOLT-4; Malme-3M; NCI-H226; NCI-H460; SK-MEL-28; SK-MEL-2; SNB-19; SR; TK-10; UACC-257; UACC-62.
Assay in all cases: NCI tumour cell line growth inhibition, 48 h

`O=c1c2cc(Cl)ccc2n2nnc3ccc(NCCNCCO)c1c32`: the GI50 is 1.44 µM (inactive) in the experiment on A498; 0.56 µM (active) with CCRF-CEM; 0.419 µM (active) with HCT-116; 1.41 µM (inactive) in the experiment with HOP-62; 2.02 µM (inactive) in the experiment on HOP-92; 1.78 µM (inactive) in the experiment on Hs-578T. Moreover, the GI50 in the experiment with M14 was 1.38 µM (inactive); with M19-MEL, 1.55 µM (inactive); with MDA-MB-231, 1.47 µM (inactive); in the experiment with MOLT-4, 0.394 µM (active); with Malme-3M it was 2.09 µM (inactive); in the experiment on NCI-H226 it was 2.11 µM (inactive). In addition, the GI50 in the experiment on NCI-H460 was 0.378 µM (active); in the experiment with SK-MEL-28, 1.79 µM (inactive); in the experiment with SK-MEL-2, 2.09 µM (inactive); in the experiment with SNB-19, 1.5 µM (inactive); in the experiment with SR it was 0.641 µM (active); in the experiment on TK-10, 2.4 µM (inactive). For the same molecule, the results for the GI50 in the experiment on UACC-257 and with UACC-62 were 1.78 µM (inactive) and 2.31 µM (inactive), respectively.

For `O=C(O)CCCCCOc1cccnc1/C=N/NC1=NCCN1`, the GI50 in the experiment with A498 is 59.6 µM (inactive); in the experiment with CCRF-CEM it was > 100 µM (inactive); with HCT-116 it was > 100 µM (inactive); with HOP-62 it was > 100 µM (inactive); in the experiment with HOP-92, > 100 µM (inactive); in the experiment with M14, > 100 µM (inactive). For the same molecule, the GI50 in the experiment with M19-MEL, in the experiment on MOLT-4, with Malme-3M, in the experiment on NCI-H226, with NCI-H460 and with SK-MEL-28 was > 100 µM (inactive) each time. In addition, the GI50 with SK-MEL-2, with SNB-19, in the experiment with SR, in the experiment with TK-10, with UACC-257 and in the experiment on UACC-62 was > 100 µM (inactive) throughout.

Regarding `COC(=O)c1nc(N)nc(O)c1-c1ccc(Cl)cc1`, the GI50 with A498, in the experiment with CCRF-CEM, with HCT-116, in the experiment with HOP-62, with HOP-92 and in the experiment on M14 was > 100 µM (inactive) in each case. In addition, the GI50 in the experiment with M19-MEL, in the experiment on MOLT-4, in the experiment with Malme-3M, with NCI-H226, in the experiment with NCI-H460 and with SK-MEL-28 was > 100 µM (inactive) in each case. Besides, the GI50 in the experiment on SK-MEL-2 was > 100 µM (inactive); in the experiment on SNB-19, > 100 µM (inactive); in the experiment on SR it was > 70 µM (inactive); in the experiment on TK-10, > 100 µM (inactive); with UACC-257, > 100 µM (inactive); in the experiment with UACC-62, > 100 µM (inactive).

Turning to `COc1ccccc1/C=C1\CCC(CN2CCOCC2)C1=O` (stereo not given), the GI50 is 18.2 µM (inactive) in the experiment with A498; 2.56 µM (inactive) in the experiment with CCRF-CEM; 6.92 µM (inactive) with HCT-116; 25.5 µM (inactive) in the experiment on HOP-62; 18.4 µM (inactive) with HOP-92; 10.8 µM (inactive) in the experiment on Hs-578T. Besides, the GI50 is 6.15 µM (inactive) in the experiment with M14; 6.7 µM (inactive) in the experiment with M19-MEL; 3.68 µM (inactive) with MDA-MB-231; 2.32 µM (inactive) with MOLT-4; 10.2 µM (inactive) in the experiment with Malme-3M; 16.9 µM (inactive) with NCI-H226. Moreover, the GI50 in the experiment with NCI-H460 is 18.2 µM (inactive); in the experiment on SK-MEL-28 it was 15.5 µM (inactive); in the experiment on SK-MEL-2 it was 15.7 µM (inactive); in the experiment with SNB-19, 9.55 µM (inactive); in the experiment on SR, 1.74 µM (inactive); in the experiment on TK-10, 3.49 µM (inactive). For the same molecule, the GI50 was 11.6 µM (inactive) in the experiment with UACC-257 and 16.4 µM (inactive) in the experiment with UACC-62.

Regarding `O=C(O)CSc1nnc(-c2ccc(O)cc2)[nH]1`, the GI50 in the experiment on A498, with CCRF-CEM, in the experiment with HCT-116, in the experiment with HOP-62, with HOP-92 and in the experiment with M14 was > 100 µM (inactive) throughout. For the same molecule, the GI50 in the experiment on M19-MEL, in the experiment with MOLT-4, in the experiment with Malme-3M, with NCI-H226, with NCI-H460 and with SK-MEL-28 was > 100 µM (inactive) throughout. In addition, the GI50 in the experiment on SK-MEL-2, in the experiment with SNB-19, in the experiment with SR, in the experiment with TK-10, in the experiment with UACC-257 and with UACC-62 was > 100 µM (inactive) each time.

Turning to `c1ccc2c3c([nH]c2c1)C1(CCCCC1)c1c([nH]c2ccccc12)C31CCCCC1`, the GI50 in the experiment on A498 was 24.2 µM (inactive); in the experiment with CCRF-CEM, 79.8 µM (inactive); in the experiment on HCT-116, 15.7 µM (inactive); in the experiment with HOP-62, 19.5 µM (inactive); with HOP-92, 20.4 µM (inactive); in the experiment on M14 it was 30 µM (inactive). Moreover, the GI50 was 46 µM (inactive) in the experiment on M19-MEL; 47.5 µM (inactive) with MOLT-4; 23.1 µM (inactive) in the experiment with Malme-3M; 27.5 µM (inactive) in the experiment with NCI-H226; 34.7 µM (inactive) with NCI-H460; 37.1 µM (inactive) in the experiment with SK-MEL-28. Further, the GI50 is 18.8 µM (inactive) in the experiment on SK-MEL-2; 54.5 µM (inactive) in the experiment on SNB-19; 22.1 µM (inactive) with SR; 30.9 µM (inactive) in the experiment with TK-10; 50.4 µM (inactive) in the experiment with UACC-257; 23.9 µM (inactive) in the experiment on UACC-62.

Consider `COc1ccc(OC(=O)N2C/C(=C\c3ccccc3)C(=O)/C(=C/c3ccccc3)C2)cc1`, for which the GI50 in the experiment on A498 was 2.33 µM (inactive); with CCRF-CEM, 1.02 µM (active); with HCT-116, 0.355 µM (active); in the experiment with HOP-62, 8.15 µM (inactive); with HOP-92 it was 19.1 µM (inactive); with Hs-578T, 2.11 µM (inactive). Further, the GI50 in the experiment on M14 is 2.62 µM (inactive); in the experiment with M19-MEL, 1.38 µM (inactive); in the experiment on MDA-MB-231, 3.21 µM (inactive); in the experiment on MOLT-4, 1.49 µM (inactive); in the experiment on Malme-3M, 11.1 µM (inactive); with NCI-H226, 10.1 µM (inactive). The GI50 is 5.42 µM (inactive) in the experiment with NCI-H460; 2.14 µM (inactive) in the experiment with SK-MEL-28; 11.6 µM (inactive) with SK-MEL-2; 4.62 µM (inactive) in the experiment with SNB-19; 0.222 µM (active) with SR; 18.2 µM (inactive) in the experiment on TK-10. Besides, the GI50 in the experiment on UACC-257 was 3.74 µM (inactive); in the experiment with UACC-62 it was 2.16 µM (inactive).

As for `O=C(CCc1nnc(S)[nH]1)Nc1ccccc1Cl`, the GI50 in the experiment with A498, with CCRF-CEM, with HCT-116, in the experiment with HOP-62, in the experiment with HOP-92 and in the experiment with M14 was > 100 µM (inactive) in each case. In addition, the GI50 in the experiment on M19-MEL, with MOLT-4, with Malme-3M, with NCI-H226, with NCI-H460 and with SK-MEL-28 was > 100 µM (inactive) in each case. Besides, the GI50 in the experiment on SK-MEL-2, in the experiment on SNB-19, in the experiment on SR, in the experiment with TK-10, with UACC-257 and in the experiment on UACC-62 was > 100 µM (inactive) throughout.
